In PubChem BioAssay (NCI):
Converted amounts (≈) assume the structure as drawn. “And” between values parts separate entries of the source, which are not always exact repeats. Equal values may be shown once.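 Where inhibition never reached the appropriate level, the endpoint shown equals the highest concentration tested. Otherwise, values were interpolated linearly from a five-concentration, 48-hour dose response in 96-well plates. Here, GI50 denotes the concentration required for 50% inhibition of growth. At the TGI there is no net growth.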 The source made the active and inactive calls. Rule as the data show it: active = GI50 below about 0.43 µM; inactive = the rest.

Tests used:
Assay in all cases: NCI anticancer screen, dose series, 48 h
[1] = test system: DLD-1 colon
[2] = test system: DMS 114 small cell lung
[3] = test system: DMS 273 small cell lung
[4] = test system: HOP-18 NSCLC
[5] = test system: KM20L2 colon
[6] = test system: M19-MEL melanoma
[7] = test system: XF 498 CNS
[8] = test system: MDA-N
[9] = test system: RXF-631 renal

| Compound | TGI [1] | TGI [2] | TGI [3] | TGI [4] | TGI [5] | TGI [6] | TGI [7] | TGI [8] | other results |
| --- | --- | --- | --- | --- | --- | --- | --- | --- | --- |
| C[N+](C)(C)CC(=O)N/N=C(/C=C/c1ccccc1)CC1OC(=O)c2ccccc21 (stereo not given) | > 100 µM | > 100 µM | > 100 µM | > 100 µM | > 100 µM | > 100 µM | > 100 µM | – | – |
| CN(C)CCCn1cnc2ncccc2c1=O | > 100 µM | > 100 µM | > 100 µM | – | – | > 100 µM | > 100 µM | – | – |
| O=C(Nc1ccc(Cl)cc1)NS(=O)(=O)c1ccc2c(c1)CCC2 | > 100 µM and 41.1 µg/mL | > 100 µM | > 100 µM and 39.6 µg/mL | > 100 µM | > 100 µM | > 100 µM and 58.5 µg/mL | > 100 µM | > 100 µM | GI50 [1]: 19.5 µg/mL (≈ 55.5 µM); GI50 [3]: 17.6 µg/mL (≈ 50.3 µM); outcome [4]: inactive; outcome [5]: inactive; GI50 [6]: 29.8 µg/mL (≈ 85.1 µM); outcome [7]: inactive |
| CCOP1(=O)OCC2OC(n3cnc4c(N)ncnc43)C(O)C2O1 (stereo not given) | – | – | – | – | – | – | – | > 100 µM | – |
| CCc1ccc(Cc2ccc(CC)c(NC(=O)C(=O)Cc3nc4ccccc4nc3C)c2CC)c(CC)c1NC(=O)C(=O)Cc1nc2ccccc2nc1C | > 100 µM | > 100 µM | – | – | > 100 µM | > 100 µM | – | – | TGI [9]: > 100 µM |
| COC1CC(OC2OC(CO)C(O)C(O)C2O)/C(=C\C#N)C(O)C1OC (stereo not given) | – | – | – | – | – | – | – | > 100 µM | – |
| COc1c(O)c2ccccc2c2cc(O)ccc12 | 25.5 µM | 6.03 µM | 20.5 µM | 3.72 µM | 46.6 µM | 3.59 µM | 5.13 µM | 2.57 µM | – |
| CN(NC(=O)/C(=C/c1ccc(O)cc1)NC(=O)c1ccccc1)c1ccnc2cc(Cl)ccc12 | – | – | – | – | – | – | – | 32.2 µM | – |
| O=P(O)(O)OC1C(OP(=O)(O)O)C(OP(=O)(O)O)C(OP(=O)(O)O)C(OP(=O)(O)O)C1OP(=O)(O)O (stereo not given) | – | – | – | – | – | – | – | > 2000 µM | GI50 [8]: > 2000 µM |
| CCCCNC(=S)Nn1c(-c2ccccc2)nc2ccccc2c1=O | > 100 µM | > 100 µM | > 100 µM | > 100 µM | – | > 100 µM | – | – | – |
| COc1c2occc2c(OC)c2c(=O)c(S(=O)(=O)NC(=O)Nc3ccc(Cl)cc3)coc12 | – | – | – | – | – | – | – | > 10 µM | – |
| O=c1[nH]nc(-c2ccccc2)c(-c2ccccc2)c1-n1nc(-c2ccccc2)c2ccccc2c1=O | > 100 µM | – | > 100 µM | > 100 µM | – | > 100 µM | – | – | – |
| CCC12C=CCN3CC[C@]4(C(=C(C(=O)OC)[C@@H]1Nc1ncnc5c1ncn5C1OC(COC(C)=O)C(OC(C)=O)C1OC(C)=O)Nc1ccccc14)C32 (stereo not given in full) | 6.22 µM | 4.27 µM | 7.17 µM | 19.5 µM | 6.94 µM | 5.93 µM | 7.44 µM | – | – |
| CC1CN(CCO)CC(C)O1 (stereo not given) | – | – | – | – | – | – | – | > 100 µM | – |
| COC(=O)C1=Cc2cc3c(cc2[C@H](c2ccc4c(c2)OCO4)C1C(=O)OC)OCO3 (stereo not given in full) | > 100 µM | > 100 µM | > 100 µM | > 100 µM | > 100 µM | > 100 µM | > 100 µM | – | – |
| CC/C(=C(\c1ccccc1)c1ccc(OCCN(C)C)cc1)c1ccccc1 | – | – | – | – | – | – | – | > 25 µM and 8.31 µM and 9.59 µM | GI50 [8]: > 25 µM and 6.53 µM |
| COc1ccc(C2SC(N)=Nc3c2c(C)nn3C(=O)c2ccncc2)cc1 (stereo not given) | – | – | – | – | – | – | – | > 100 µM | – |
| CCN(CC)CCN(C)CC(C)(C)C(=O)/C=C/c1ccccc1 | 22.2 µM | 21.4 µM | 26.1 µM | 30.6 µM | 23.1 µM | 24.3 µM | 24.8 µM | – | – |
| COC1CCC(=C2C(=O)OC(C)(C)OC2=O)N1 (stereo not given) | > 100 µM | > 100 µM | > 100 µM | > 100 µM | > 100 µM | > 100 µM | > 100 µM | – | – |
| COc1ccc(CN(O)C2C(CO)OC(n3cc(I)c(=O)[nH]c3=O)C2O)cc1 (stereo not given) | > 100 µM | > 100 µM | > 100 µM | > 100 µM | > 100 µM | > 100 µM | > 100 µM | – | – |
| N/C(=N\N=C\c1ccc2c(c1)OCO2)NO | – | – | – | – | – | – | – | > 100 µM | – |
| C=CCCc1cc(OC)ccc1CN(C)C(C)(C)CO | > 100 µM | > 100 µM | > 100 µM | > 100 µM | > 100 µM | > 100 µM | – | – | – |

| Compound | TGI [1] | TGI [2] | TGI [3] | TGI [4] | TGI [5] | TGI [6] | TGI [7] | TGI [8] | other results |
| --- | --- | --- | --- | --- | --- | --- | --- | --- | --- |
| CC1(CCCC2(C)CCNC2=O)OCCO1 (stereo not given) | – | – | – | – | – | – | – | > 10 µM | – |
| COc1ccc(NC(=O)CC/C(CC(=O)c2ccco2)=N/Nc2ccc([N+](=O)[O-])cc2[N+](=O)[O-])cc1 | – | 69.6 µM | > 100 µM | > 100 µM | > 100 µM | > 100 µM | 81.4 µM | – | TGI [9]: > 100 µM |
| Cc1cc(O)c2c(c1)C[C@@H](O)C1=C2C(=O)c2c(O)ccc(OC3CC(O)C(OC4CC(OC5CCC(OC6CC(O)C(OC7CC(OC8CCC(O)C(C)O8)C(O)C(C)O7)C(C)O6)C(C)O5)C(O)C(C)O4)C(C)O3)c2C1=O (stereo not given in full) | 0.0426 µM | 0.0378 µM | 0.0684 µM | 0.188 µM | 0.191 µM | 0.0197 µM | 0.0517 µM | 0.211 µM and 0.387 µM and 0.562 µM | GI50 [8]: 0.207 µM and 0.24 µM |
| NC(=O)C/C=C/CC(N)=O | – | – | – | – | – | – | – | > 100 µM | – |
| CC(=O)Oc1c(-c2ccccc2)[nH]c2cc([N+](=O)[O-])c(/C(Cl)=C/c3ccccc3)cc12 | > 100 µM | 7.72 µM | – | – | 18.6 µM | 19.4 µM | 19.3 µM | – | – |
| CN(C)C1(C#N)CCC2(CC1)OCCO2 | – | – | > 100 µM | – | > 100 µM | > 100 µM | – | – | – |
| CC(C)NC(=O)OCc1nnn2c1C(OC(=O)NC(C)C)CC2 (stereo not given) | > 100 µM | > 100 µM | > 100 µM | > 100 µM | > 100 µM | > 100 µM | > 100 µM | – | TGI [9]: > 100 µM |
| CC(=O)NC1(C)CCC(C(C)(C)NC(C)=O)CC1 (stereo not given) | – | – | – | – | – | – | – | > 100 µM | – |
| [O-][n+]1onc2c3nn(-c4ccccc4)nc3ccc21 | – | – | – | – | – | – | – | > 100 µM | – |
| Cc1c2c(n3c(nc4ccccc43)c1C#N)SCC2 | – | – | – | – | – | – | – | > 10 µM | – |
| O=C1CCCC1C(=O)Nc1ccc2ccccc2c1 (stereo not given) | – | – | – | – | – | – | – | > 100 µM | – |
| COC(=O)C1=C(O)C(O)=C(C(=O)OC)CC1 | > 100 µM | > 100 µM | > 100 µM | > 100 µM | – | > 100 µM | > 100 µM | – | – |
| O=C(Nc1nc2ncn(CCOC(=O)c3ccccc3)c2c(=O)[nH]1)c1ccccc1 | – | – | – | > 100 µM | 83.3 µM | – | 55.7 µM | 7.89 µM | TGI [9]: > 100 µM |
| C=C1C(=O)OC2C1C(OC(=O)/C(=C/C)COC(C)=O)CC1(CO1)C1C(OC(=O)/C(=C/C)CO)C=C(C)C21 (stereo not given) | 4.14 µM | 4.46 µM | 3.68 µM | 2.74 µM | 11.2 µM | 4.3 µM | 3.78 µM | – | – |
| CN1CCC(O)C(CNC23CC4CC(CC(C4)C2)C3)C1 (stereo not given) | > 100 µM | > 100 µM | > 100 µM | – | > 100 µM | > 100 µM | > 100 µM | – | TGI [9]: > 100 µM |
| CC(=O)OC1COC(N2C(=O)C(=O)c3c(C)cc(Cl)nc32)C(OC(C)=O)C1OC(C)=O (stereo not given) | > 100 µM | > 100 µM | > 100 µM | > 100 µM | > 100 µM | > 100 µM | > 100 µM | – | – |
| O=C(c1ccccc1)c1nnn(Cc2cccc(Cl)c2)c1C(=O)c1ccccc1 | > 100 µM | > 100 µM | > 100 µM | > 100 µM | > 100 µM | > 100 µM | > 100 µM | – | – |
| C1=C[C@@H]2c3ccc4cnccc4c3NC[C@@H]2C1 | – | – | – | – | – | – | – | > 100 µM | – |
| CCCCN(CCCC)C(=Nc1ccccc1)N(CCCC)CCCC | 43.6 µM | 4.99 µM | 17.1 µM | 6.39 µM | 12.5 µM | 22.4 µM | 5.95 µM | – | TGI [9]: 26.2 µM |
| N#Cc1c([N+](=O)[O-])cc(C(F)(F)F)cc1[N+](=O)[O-] | 16.7 µM | 3.93 µM | 16.8 µM | 23.9 µM | 44.2 µM | 5.27 µM | 3.54 µM | – | TGI [9]: 27.3 µM |
| CCc1nc(N)nc(N)c1-c1ccc(Cl)cc1 | – | – | – | – | – | – | – | > 100 µM | – |
